The nature of this series: mn = molality of the nth substance listed, in mol/kg. Particulars: 101 kPa, Liquid, m1 = 4.655.

± gives the expanded uncertainty stated by the source.

Broadly, the mass density is the mass of a sample divided by its volume. The viscosity is the resistance of a fluid to flow. As for `N.N.O=S(=O)(O)O` [ammonium sulfate] + O, the mass density is given as 1217.66 ± 0.47 kg/m3 (293.15 K); 1215.79 ± 0.47 kg/m3 (298.15 K); 1213.89 ± 0.47 kg/m3 (303.15 K); 1211.94 ± 0.46 kg/m3 (308.15 K); 1209.97 ± 0.46 kg/m3 (313.15 K). Also, the viscosity is, setting by setting: (298.15 K) 2.114 ± 0.024 mPa·s; (303.15 K) 1.944 ± 0.022 mPa·s; (308.15 K) 1.785 ± 0.021 mPa·s.

These data come from the NIST ThermoML archive (doi:10.1021/je8008649).
